Tests used:
human albumin = biological target: T1, human albumin (Homo sapiens, UniProt P02768); assay: Inhibition of albumin denaturation (anti-inflammatory activity); assay type: biochemical; details: heat-induced denaturation
T1 construct: purchased Octapharma (IP) SPRL Albunorm 20
Method: Anti-denaturation assay was conducted as described by Kumari et al. with slight modifications. The reaction mixture consisted of 0.5 mL of 5% aqueous solution of human albumin (Albunorm 20, Octapharma (IP) SPRL, 1070 Anderlecht, Belgium) and 0.2 mL of the tested compound, dissolved in DMSO, at different concentrations (20–500 μg/mL). The samples were incubated at 37 °C for 15 min. After that, 2.5 mL phosphate-buffered saline (pH 6.3) was added to each tube and the samples were heated for 30 min to 80 °C and then cooled for 5 min. Turbidity was measured spectrophotometrically at 660 nm (Cary 60 UV-Vis, Agilent Technologies, Santa Clara, CA, USA). For the blank sample, a mixture of 2.5 mL buffer and 0.2 mL DMSO was used instead of the compounds, while the product control test lacked the compounds’ concentration having 0.5 mL serum albumin, and 2.5 mL buffer only. The percentage inhibition of protein denaturation was calculated as follows:Percentage of inhibition denaturation = (Absorbancecontrol − Absorbancesample) / Absorbancecontrol × 100
The control represents 100% protein denaturation.
Commercially available over-the-counter non-steroidal anti-inflammatory drugs diclofenac sodium and acetylsalicylic acid were used for comparison. Their anti-inflammatory effect was determined as a percentage of inhibition of albumin denaturation following the same protocol as for the novel compounds.

[1] = tested on: Staphylococcus aureus ATCC 25923; assay: Antimicrobial activity, agar well diffusion; assay type: cell-based; details: Dose 0.6 mg/disk, dwell = 6 mm
Source text: (§1) Twenty tested microorganisms including six Gram-positive bacteria (Bacillus subtilis ATCC 6633, Bacillus amyloliquefaciens 4BCL-YT, Staphylococcus aureus ATCC 25923, Listeria monocytogenes NBIMCC 8632, Enterococcus faecalis ATCC 19433), six Gram-negative bacteria (Salmonella enteritidis ATCC 13076, Klebsiella sp.—clinical isolate, Escherichia coli ATCC 25922, Proteus vulgaris ATCC 6380, Pseudomonas aeruginosa ATCC 9027), two yeasts (Candida albicans NBIMCC 74, Saccharomyces cerevisiae ATCC 9763), and six fungi (Aspergillus niger ATCC 1015, Aspergillus flavus, Penicillium sp., Rhizopus sp., Mucor sp.—plant isolates, Fusarium moniliforme ATCC 38932) from the collection of the Department of Microbiology at the University of Food Technologies—Plovdiv, Bulgaria, were selected for the antimicrobial activity test. The antimicrobial activity of the samples was determined by the agar well diffusion method. The tested bacteria B. subtilis and B. amyloliquefaciens were cultured on LBG agar at 30 °C. The test bacteria S. aureus, L. monocytogenes, E. faecalis, S. enteritidis, Klebsiella sp., E. coli, P. vulgaris, and P. aeruginosa were cultured on LBG agar at 37 °C for 24 h. The yeast C. albicans was cultured on MEA at 37 °C, while S. cerevisiae was cultured on MEA at 30 °C for 24 h. The fungi A. niger, A. flavus, Penicillium sp., Rhizopus sp., Mucor sp., and F. moniliforme were grown on MEA at 30 °C for 7 days or until sporulation. The inocula of the tested bacteria/yeasts was prepared by homogenization of a small amount of biomass in 5 mL of sterile 0.5% NaCl. The inocula of tested fungi were prepared by the addition of 5 mL of sterile 0.5% NaCl into the tubes. After stirring by vortex V-1 plus (Biosan), they were filtered and replaced in other tubes before use. The number of viable cells and fungal spores was determined using a bacterial counting chamber Thoma (Poly-Optik, GmbH, Bad Blankenburg, Germany). Their final concentrations were adjusted to 10^8 cfu/mL for bacterial/yeast cells and 10^5 cfu/mL for fungal spores and then inoculated in preliminarily melted and tempered at 45–48 °C LBG/MEA agar media. Next, the inoculated media were transferred in a quantity of 18 mL in sterile Petri plates (d = 90 mm) (Gosselin™, Hazebrouck, France) and allowed to harden. Then, six wells (d = 6 mm) per plate were cut, and triplicates of 60 μL of each extract were pipetted into the agar wells. The Petri plates were incubated in identical conditions. The antimicrobial activity was determined by measuring the diameter of the inhibition zones around the wells on the 24th and 48th h of incubation. Tested microorganisms with inhibition zones of 18 mm or more were considered sensitive; moderately sensitive were those in which the zones were from 12 to 18 mm; resistant were those in which the inhibition zones were up to 12 mm or completely missing.

[2] = tested on: Bacillus amyloliquefaciens 4BCL-YT; assay: Antimicrobial activity, agar well diffusion; assay type: cell-based; details: Dose 0.6 mg/disk, dwell = 6 mm
Source text: as §1

T1 sequence (P02768 25-609): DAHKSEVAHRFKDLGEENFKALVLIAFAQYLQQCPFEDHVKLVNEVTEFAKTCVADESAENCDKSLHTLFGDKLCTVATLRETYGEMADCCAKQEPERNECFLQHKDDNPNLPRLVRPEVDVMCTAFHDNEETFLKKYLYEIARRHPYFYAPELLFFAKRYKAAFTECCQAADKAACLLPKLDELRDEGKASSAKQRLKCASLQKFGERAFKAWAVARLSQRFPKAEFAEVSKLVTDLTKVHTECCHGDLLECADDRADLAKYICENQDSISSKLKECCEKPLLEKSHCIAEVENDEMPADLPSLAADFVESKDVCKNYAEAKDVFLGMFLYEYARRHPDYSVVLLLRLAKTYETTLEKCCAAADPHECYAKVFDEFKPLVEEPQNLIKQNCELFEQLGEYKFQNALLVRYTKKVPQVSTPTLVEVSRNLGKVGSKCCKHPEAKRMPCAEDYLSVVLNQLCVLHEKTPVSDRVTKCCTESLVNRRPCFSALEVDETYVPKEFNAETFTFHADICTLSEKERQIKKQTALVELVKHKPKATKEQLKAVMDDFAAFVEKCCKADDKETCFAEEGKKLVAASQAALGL

Row | SMILES | IC50 (human albumin) [µM] | Inhibition Zones [1] [mm] | Inhibition Zones [2] [mm]
1 | Nc1ccccc1C(=O)NCCc1cccc(Cl)c1 [Compound 3, 2-amino-N-(3-chlorophenethyl)benzamide] | 2400 | 8 | 11
2 | O=C(Nc1ccccc1C(=O)NCCc1cccc(Cl)c1)c1ccccc1 [Compound 4b, 2-benzamido-N-(3-chlorophenethyl)benzamide] | 1950 | 8 | 10

From publication PMC10530836, “Synthesis, Molecular Docking, and Biological Evaluation of Novel Anthranilic Acid Hybrid and Its Diamides as Antispasmodics” (International Journal of Molecular Sciences, 2023)
